Molecular target: T1, Tdp1 (Homo sapiens, UniProt Q9NUW8)
T1 construct: made in house; host or cells: Escherichia coli
Assay: Real-time detection of Tdp1 activity (5'-FAM/3'-BHQ1 oligonucleotide biosensor)
Assay type: biochemical
Conditions: 1.5 nM Tdp1, 50 nM oligonucleotide substrate, 26 °C
Source text: We first studied the inhibition potency of our compounds to Tdp1 by using a real-time oligonucleotide biosensor assay that we have previously developed. The assay was based on the ability of Tdp1 to remove the fluorescence quencher from the 3’-end of DNA. The substrate is a 16-mer single-stranded oligonucleotide containing both a 5’-FAM fluorophore and a 3’-BHQ1 quencher.
A fluorophore quencher-coupled DNA-biosensor for real-time measurement of Tdp1 cleavage activity was recently designed in our laboratory. The biosensor is a 16-mer single-stranded oligonucleotide containing both a 5’-FAM fluorophore donor and a quenching 3’-BHQ1 moiety.
Recombinant protein Tdp1 was expressed in EsCherichia coli (pET 16B plasmid containing Tdp1 cDNA provided by Dr. K.W. Caldecott, University of Sussex, United Kingdom) and isolated as described. The reaction mixture in a final volume 200 μL contained Tdp1 reaction buffer (50 mM Tris-HCl, 50 mM NaCl, 7 mM β-mercaptoethanol), 50 nM oligonucleotide substrate, and varied concentrations of potential inhibitor. Purified Tdp1 was added in a final concentration of 1.5 nM.
The reaction mixtures were incubated at a constant temperature of 26 °C in a POLARstar OPTIMA fluorimeter, BMG LABTECH, GmbH, to measure fluorescence intensity every minute (Ex485/Em520 nm). Tdp1 inhibition was calculated by comparing the rate of increase in fluorescence of the biosensor in the presence of the compound to that of DMSO (1.5%) control wells. The measurements were carried out in at least two independent experiments. IC50 values were determined using a six-point concentration response curve. The data were imported into the MARS Data Analysis 2.0 program (BMG LABTECH) and the slope during the linear phase (data from 0 to 7 min) was calculated.

T1 sequence (Q9NUW8 whole entry): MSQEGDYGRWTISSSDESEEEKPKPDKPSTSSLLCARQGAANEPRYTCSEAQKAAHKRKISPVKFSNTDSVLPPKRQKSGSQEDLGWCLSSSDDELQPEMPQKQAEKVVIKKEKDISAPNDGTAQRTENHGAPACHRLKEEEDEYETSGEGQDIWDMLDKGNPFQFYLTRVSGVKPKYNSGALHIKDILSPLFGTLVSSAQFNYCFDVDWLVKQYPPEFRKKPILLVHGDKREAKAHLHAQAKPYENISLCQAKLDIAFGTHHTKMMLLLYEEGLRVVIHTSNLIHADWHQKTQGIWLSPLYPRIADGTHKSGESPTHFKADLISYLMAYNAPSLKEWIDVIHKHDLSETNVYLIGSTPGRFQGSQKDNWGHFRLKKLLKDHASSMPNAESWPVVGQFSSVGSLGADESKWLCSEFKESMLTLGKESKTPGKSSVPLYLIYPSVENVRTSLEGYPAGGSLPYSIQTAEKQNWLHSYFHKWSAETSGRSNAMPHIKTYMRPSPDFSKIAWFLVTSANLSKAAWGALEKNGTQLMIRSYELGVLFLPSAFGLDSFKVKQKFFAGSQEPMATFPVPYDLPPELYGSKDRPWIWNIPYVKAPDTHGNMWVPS

SMILES | IC50 [nM]
CC(=O)C1=C(O)C=C2Oc3c(-c4csc(N/N=C/c5ccoc5)n4)c(O)c(C)c(O)c3[C@@]2(C)C1=O [(+)-16l, (2R)-4-Acetyl-5,11,13-trihydroxy-2,12-dimethyl-10-{2-[(E)-2-[(furan-3-yl)methylidene] hydrazin-1-yl]-1,3-thiazol-4-yl}-8-oxatricyclo[7.4.0.0^2,7]trideca-1(9),4,6,10,12-pentaen-3-one] | 77 ± 6
CC(=O)C1=C(O)C=C2Oc3c(-c4csc(N/N=C/c5ccc(C)s5)n4)c(O)c(C)c(O)c3[C@]2(C)C1=O [(−)-16e, (2S)-4-Acetyl-5,11,13-trihydroxy-2,12-dimethyl-10-{2-[(E)-2-[(5-methylthiophen-2-yl)methylidene]hydrazin-1-yl]-1,3-thiazol-4-yl}-8-oxatricyclo[7.4.0.0^2,7]trideca-1(9),4,6,10,12-pentaen-3-one] | 54 ± 25
COc1ccc(/C=N/Nc2nc(-c3c(O)c(C)c(O)c4c3OC3=CC(O)=C(C(C)=O)C(=O)[C@]34C)cs2)cc1COc1cccc(F)c1 [(−)-17b, (2S)-4-Acetyl-10-{2-[(E)-2-({3-[(3-fluorophenoxy)methyl]-4-methoxyphenyl}methylidene)hydrazin-1-yl]-1,3-thiazol-4-yl}-5,11,13-trihydroxy-2,12-dimethyl-8-oxatricyclo[7.4.0.0^2,7]trideca-1(9),4,6,10,12-pentaen-3-one] | 78 ± 3
CC(=O)C1=C(O)C=C2Oc3c(-c4csc(N/N=C/c5cccs5)n4)c(O)c(C)c(O)c3[C@@]2(C)C1=O [(+)-16g, (2R)-4-Acetyl-5,11,13-trihydroxy-2,12-dimethyl-10-{2-[(E)-2-[(thiophen-2-yl)methylidene] hydrazin-1-yl]-1,3-thiazol-4-yl}-8-oxatricyclo[7.4.0.0^2,7]trideca-1(9),4,6,10,12-pentaen-3-one] | 52 ± 18
CC(=O)C1=C(O)C=C2Oc3c(-c4csc(N/N=C/c5ccccn5)n4)c(O)c(C)c(O)c3[C@]2(C)C1=O [(−)-16b, 2-[(1E)-(2-{4-[(1S)-12-Acetyl-3,5,11-trihydroxy-1,4-dimethyl-13-oxo-8-oxatricyclo [7.4.0.0^2,7]trideca-2(7),3,5,9,11-pentaen-6-yl]-1,3-thiazol-2-yl}hydrazin-1-ylidene)methyl]pyridin-1-ium bromide] | 1480 ± 265
CC(=O)C1=C(O)C=C2Oc3c(-c4csc(N/N=C/c5sccc5C)n4)c(O)c(C)c(O)c3[C@]2(C)C1=O [(−)-16i, (2S)-4-Acetyl-5,11,13-trihydroxy-2,12-dimethyl-10-{2-[(E)-2-[(3-methylthiophen-2-yl)methylidene]hydrazin-1-yl]-1,3-thiazol-4-yl}-8-oxatricyclo[7.4.0.0^2,7]trideca-1(9),4,6,10,12-pentaen-3-one] | 121 ± 25
CC(=O)C1=C(O)C=C2Oc3c(-c4csc(N/N=C/c5ccc[nH]5)n4)c(O)c(C)c(O)c3[C@@]2(C)C1=O [(+)-16m, (2R)-4-Acetyl-5,11,13-trihydroxy-2,12-dimethyl-10-{2-[(E)-2-[(1H-pyrrol-2-yl)methylidene] hydrazin-1-yl]-1,3-thiazol-4-yl}-8-oxatricyclo[7.4.0.0^2,7]trideca-1(9),4,6,10,12-pentaen-3-one] | 188 ± 3
COc1ccc(/C=N/Nc2nc(-c3c(O)c(C)c(O)c4c3OC3=CC(O)=C(C(C)=O)C(=O)[C@]34C)cs2)cc1CN1CCN(c2ccccc2OC)CC1 [(−)-17j, (2S)-4-Acetyl-10-{2-[(E)-2-[(3-{[4-(2-methoxyphenyl)piperazin-1-yl]methyl}-4-methoxyphenyl)methylidene]hydrazin-1-yl]-1,3-thiazol-4-yl}-5,11,13-trihydroxy-2,12-dimethyl-8-oxatricyclo[7.4.0.0^2,7]trideca-1(9),4,6,10,12-pentaen-3-one] | 71 ± 15
CC(=O)C1=C(O)C=C2Oc3c(-c4csc(N/N=C/c5ccc([N+](=O)[O-])s5)n4)c(O)c(C)c(O)c3[C@]2(C)C1=O [(−)-16d, (2S)-4-Acetyl-5,11,13-trihydroxy-2,12-dimethyl-10-{2-[(E)-2-[(5-nitrothiophen-2-yl)methylidene]hydrazin-1-yl]-1,3-thiazol-4-yl}-8-oxatricyclo[7.4.0.0^2,7]trideca-1(9),4,6,10,12-pentaen-3-one] | 142 ± 4
CC(=O)C1=C(O)C=C2Oc3c(-c4csc(N/N=C/c5ccncc5)n4)c(O)c(C)c(O)c3[C@]2(C)C1=O [(−)-16a, 4-[(1E)-(2-{4-[(1S)-12-Acetyl-3,5,11-trihydroxy-1,4-dimethyl-13-oxo-8-oxatricyclo[7.4.0.0^2,7]trideca-2(7),3,5,9,11-pentaen-6-yl]-1,3-thiazol-2-yl}hydrazin-1-ylidene)methyl]pyridin-1-ium bromide] | 139 ± 38
CC(=O)C1=C(O)C=C2Oc3c(-c4csc(N/N=C/c5cccnc5)n4)c(O)c(C)c(O)c3[C@@]2(C)C1=O [(+)-16c, 3-[(1E)-(2-{4-[(1R)-12-Acetyl-3,5,11-trihydroxy-1,4-dimethyl-13-oxo-8-oxatricyclo[7.4.0.0^2,7]trideca-2(7),3,5,9,11-pentaen-6-yl]-1,3-thiazol-2-yl}hydrazin-1-ylidene)methyl]pyridin-1-ium bromide] | 353 ± 17
COc1ccc(/C=N/Nc2nc(-c3c(O)c(C)c(O)c4c3OC3=CC(O)=C(C(C)=O)C(=O)[C@]34C)cs2)cc1CSc1cc(C)ccc1C(C)(C)C [(−)-17g, (2S)-4-Acetyl-10-{2-[(E)-2-[(3-{[(2-tert-butyl-5-methylphenyl)sulfanyl]methyl}-4-methoxyphenyl)methylidene]hydrazin-1-yl]-1,3-thiazol-4-yl}-5,11,13-trihydroxy-2,12-dimethyl-8-oxatricyclo[7.4.0.0^2,7]trideca-1(9),4,6,10,12-pentaen-3-one] | 94 ± 20
CC(=O)C1=C(O)C=C2Oc3c(-c4csc(N/N=C/c5cc(Br)cs5)n4)c(O)c(C)c(O)c3[C@@]2(C)C1=O [(+)-16h, (2R)-4-Acetyl-5,11,13-trihydroxy-2,12-dimethyl-10-{2-[(E)-2-[(4-bromothiophen-2-yl)methylidene]hydrazin-1-yl]-1,3-thiazol-4-yl}-8-oxatricyclo[7.4.0.0^2,7]trideca-1(9),4,6,10,12-pentaen-3-one] | 70 ± 18
COc1ccc(/C=N/Nc2nc(-c3c(O)c(C)c(O)c4c3OC3=CC(O)=C(C(C)=O)C(=O)[C@]34C)cs2)cc1COc1ccc(F)cc1 [(−)-17a, (2S)-4-Acetyl-10-{2-[(E)-2-({3-[(4-fluorophenoxy)methyl]-4-methoxyphenyl}methylidene)hydrazin-1-yl]-1,3-thiazol-4-yl}-5,11,13-trihydroxy-2,12-dimethyl-8-oxatricyclo[7.4.0.0^2,7]trideca-1(9),4,6,10,12-pentaen-3-one] | 54 ± 3
CC(=O)C1=C(O)C=C2Oc3c(-c4csc(N/N=C/c5cccn5C)n4)c(O)c(C)c(O)c3[C@]2(C)C1=O [(−)-16n, (2S)-4-Acetyl-5,11,13-trihydroxy-2,12-dimethyl-10-{2-[(E)-2-[(1-methyl-pyrrol-2-yl)methylidene]hydrazin-1-yl]-1,3-thiazol-4-yl}-8-oxatricyclo[7.4.0.0^2,7]trideca-1(9),4,6,10,12-pentaen-3-one] | 29 ± 9
CC(=O)C1=C(O)C=C2Oc3c(-c4csc(N/N=C/c5sccc5C)n4)c(O)c(C)c(O)c3[C@@]2(C)C1=O [(+)-16i, (2R)-4-Acetyl-5,11,13-trihydroxy-2,12-dimethyl-10-{2-[(E)-2-[(3-methylthiophen-2-yl)methylidene]hydrazin-1-yl]-1,3-thiazol-4-yl}-8-oxatricyclo[7.4.0.0^2,7]trideca-1(9),4,6,10,12-pentaen-3-one] | 72 ± 3
CC(=O)C1=C(O)C=C2Oc3c(-c4csc(N/N=C/c5c[nH]c6ccccc56)n4)c(O)c(C)c(O)c3[C@]2(C)C1=O [(−)-16p, (2S)-4-Acetyl-5,11,13-trihydroxy-2,12-dimethyl-10-{2-[(E)-2-[(1H-indole-3-yl)methylidene] hydrazin-1-yl]-1,3-thiazol-4-yl}-8-oxatricyclo[7.4.0.0^2,7]trideca-1(9),4,6,10,12-pentaen-3-one] | 57 ± 1
CC(=O)C1=C(O)C=C2Oc3c(-c4csc(N/N=C/c5ccc(-c6cccc(Cl)c6)o5)n4)c(O)c(C)c(O)c3[C@]2(C)C1=O [(−)-16r, (2S)-4-Acetyl-10-{2-[(E)-2-{[5-(3-chlorophenyl)furan-2-yl]methylidene}hydrazin-1-yl]-1,3-thiazol-4-yl}-5,11,13-trihydroxy-2,12-dimethyl-8-oxatricyclo[7.4.0.0^2,7]trideca-1(9),4,6,10,12-pentaen-3-one] | 53 ± 3
CC(=O)C1=C(O)C=C2Oc3c(-c4csc(N/N=C/c5ccc(C)s5)n4)c(O)c(C)c(O)c3[C@@]2(C)C1=O [(+)-16e, (2R)-4-Acetyl-5,11,13-trihydroxy-2,12-dimethyl-10-{2-[(E)-2-[(5-methylthiophen-2-yl)methylidene]hydrazin-1-yl]-1,3-thiazol-4-yl}-8-oxatricyclo[7.4.0.0^2,7]trideca-1(9),4,6,10,12-pentaen-3-one] | 91 ± 7
